This data set can be described thus: logP determination by HPLC (EEC directive 79/831 Annex V. A8). To be noted: HPLC gradient method, acetonitrile/0.1% aqueous phosphoric acid. It is filed as physicochemical.
[1] abbreviates: E/Z mixture, first value (matches the E isomer).
Where [2] appears, read: E/Z mixture, second printed value (matches the Z isomer).
Where [3] appears, read: single isomer (E or Z as in isomer column).

What is called logP is a log measure of how a compound divides between an organic and an aqueous phase. With `CCOc1ccc(CCNC(=O)C(=NOC)c2ccc(Br)cc2)cc1OC` (mixture of isomers) [Example 3], the logP reads like this: under setting [1], 3.18; under setting [2], 3.44.
For the compound `CCOc1ccc(CCNC(=O)C(=NOC)c2ccc(C)cc2)cc1OC` (mixture of isomers) [Example 5], the logP under setting [1] is 2.87 and the logP under setting [2] is recorded as 3.05.
Turning to `CCOc1ccc(CCNC(=O)C(=NOC)c2ccc(CC)cc2)cc1OC` (mixture of isomers) [Example 6], the logP by setting is: under setting [1], 3.21; under setting [2], 3.40.
With `CCON=C(C(=O)NCCc1ccc(OCC)c(OC)c1)c1ccc(Br)cc1` (mixture of isomers) [Example 19], the logP is given as 3.51 under setting [1] and 3.80 under setting [2].
The like results for `CCON=C(C(=O)NCCc1ccc(OCC)c(OC)c1)c1ccc(Cl)cc1` (mixture of isomers) [Example 21] were, in that order, 3.41 and 3.69.
Turning to `CCON=C(C(=O)NCCc1ccc(OCC)c(OC)c1)c1ccc(C)cc1` (mixture of isomers) [Example 22], the logP was determined as 3.19 under setting [1] and 3.48 under setting [2].
As for `CCON=C(C(=O)NCCc1ccc(OCC)c(OC)c1)c1ccc(CC)cc1` (mixture of isomers) [Example 23], the logP under setting [1] was 3.55 and the logP under setting [2] stood at 3.85.
What is called chromatographic logP is lipophilicity estimated from chromatographic retention. Regarding `CCOc1ccc(CCNC(=O)C(=NOC)c2ccc(Cl)cc2)cc1OC` (racemic) [Example 1, N-[2-(4-ethoxy-3-methoxyphenyl)-1-ethyl]-2-methoxyimino-2-(4-chlorophenyl)-acetamide], the chromatographic logP worked out at 3.08 under setting [1] and 3.26 under setting [2].
Under setting [3], `CCOc1ccc(CCNC(=O)C(=NOC)c2ccc(Br)cc2)cc1OC` [Example 9] gave a logP of 3.44.
As to `CCOc1ccc(CCNC(=O)C(=NOC)c2ccc(Br)cc2)cc1OC` [Example 10], the logP under setting [3] came out at 3.18.
In the case of `CCOc1ccc(CCNC(=O)C(=NOC)c2ccc(Cl)cc2)cc1OC` [Example 11], under setting [3], the logP is 3.08.
`CCOc1ccc(CCNC(=O)C(=NOC)c2ccc(Cl)cc2)cc1OC` [Example 12]: the logP under setting [3] is on record as 3.26.
`CCOc1ccc(CCNC(=O)C(=NOC)c2ccc(C)cc2)cc1OC` [Example 15] registered a logP under setting [3] of 2.87.
For `CCOc1ccc(CCNC(=O)C(=NOC)c2ccc(CC)cc2)cc1OC` [Example 16], under setting [3], the logP was 3.04.
Take `CCOc1ccc(CCNC(=O)C(=NOC)c2ccc(CC)cc2)cc1OC` [Example 17]: the lipophilicity (logP) under setting [3] is given as 3.21.
In the case of `CCON=C(C(=O)NCCc1ccc(OCC)c(OC)c1)c1ccc(Br)cc1` [Example 24], the logP under setting [3] is recorded as 3.80.
The compound `CCON=C(C(=O)NCCc1ccc(OCC)c(OC)c1)c1ccc(C)cc1` [Example 27] returned a logP under setting [3] of 3.48.

Values taken from patent publication US6441043B1, “Glyoxylic acid amides” (priority 1997, dated 2002).
